Test results as given in patent US11793772B2, “Pharmaceutical composition comprising THA as active ingredient for treating breast cancer” (KOREA UNITED PHARM. INC., priority 2016, dated 2023).

Assays:
[1] = tested on: HCC1937 cells; assay: Cell proliferation inhibitory activity per human breast cancer cell line, HCC1937; type: cell-based; conditions: as treatment amount increased, FIG. 10C
Method: (§1) To measure cell proliferation, SKBR3, T47D, HCC1428, MDA-MD-453, MDA-MB-231, MDA-MB-468, HCC38, HCC70, and HCC1937 cells were plated in respective 96-well dishes (5×10^3 cells/well). For cell stabilization, these cells were incubated in a cell incubator at 36.5° C. for 24 hours, and then treated with a drug, and the number of live cells was measured using an IncuCyte ZOOM live cell analysis system (Essen Bioscience, Ann Arbor, Mich., USA) at intervals of 4 hours.

[2] = tested on: HCC38 cells; assay: Cell proliferation inhibitory activity per human breast cancer cell line, HCC38; type: cell-based; conditions: as treatment amount increased, FIG. 10C
Method: as §1

[3] = tested on: T47D cells; assay: Cell proliferation inhibitory activity per human breast cancer cell line, T47D; type: cell-based; conditions: as treatment amount increased, FIG. 10A
Method: as §1

[4] = tested on: SKBR3 cells; assay: Cell proliferation inhibitory activity per human breast cancer cell line, SKBR3; type: cell-based; conditions: as treatment amount increased, FIG. 10A
Method: as §1

[5] = tested on: HCC1428 cells; assay: Cell proliferation inhibitory activity per human breast cancer cell line, HCC1428; type: cell-based; conditions: as treatment amount increased, FIG. 10A
Method: as §1

[6] = tested on: MDA-MB-468 cells; assay: Cell proliferation inhibitory activity per human breast cancer cell line, MDA-MB-468; type: cell-based; conditions: as treatment amount increased, FIG. 10B
Method: as §1

[7] = tested on: MDA-MD-453 cells; assay: Cell proliferation inhibitory activity per human breast cancer cell line, MDA-MD-453; type: cell-based; conditions: as treatment amount increased, FIG. 10B
Method: as §1

[8] = tested on: MDA-MB-231 cells; assay: Cell proliferation inhibitory activity per human breast cancer cell line, MDA-MB-231; type: cell-based; conditions: as treatment amount increased, FIG. 10B
Method: as §1

[9] = tested on: HCC70 cells; assay: Cell proliferation inhibitory activity per human breast cancer cell line, HCC70; type: cell-based; conditions: as treatment amount increased, FIG. 10C
Method: as §1

[10] = tested on: TAMR-MCF-7 cells; assay: Cell cycle analysis by flow cytometry; type: cell-based, human; conditions: FIG. 4, FIG. 5
Method: To measure the cell cycle distribution, cells were plated in a 100 mm dish (5×10^5 cells/well). The cells were fixed with PBS at 4° C., refrigerated in 70% EtOH at 4° C., and cultured for 24 hours. After removing the 70% EtOH, the cells were stained with propidium iodide (PI)/Triton X-100/DNAse-free RNAse A at 37° C. for 15 minutes. 20,000 cells per experimental group were analyzed using an FACS-Calibur™ (BD Biosciences, CA, USA) machine.

[11] = tested on: TAMR-MCF-7 cells; assay: Real-time cell proliferation assay (IncuCyte ZOOM), TAMR-MCF-7; type: cell-based, human; conditions: TAMR-MCF-7 tamoxifen-resistant breast cancer cells; FIG. 2, FIG. 3
Method: (§2) An MCF-7 cell line was sub-cultured in high glucose Dulbeccos Modified Eagle's Medium (DMEM) containing 10% fetal bovine serum, 50 U/ml of penicillin, and 50 μg/ml of streptomycin in an incubator supplied with 5% CO2 at 37° C. to be used for experiments. A TAMR-MCF-7 cell line was cultured in high glucose Dulbeccos Modified Eagle's Medium (DMEM) containing 10% charcoal-stripped fetal bovine serum, 3 μM 4-OH-tamoxifen (Sigma-Aldrich, Mo., USA), 50 U/ml of penicillin, and 50 μg/ml of streptomycin.
(§3) To measure cell proliferation, cells were plated in a 96-well dish (5×10^3 cells/well). After drug treatment, the number of live cells was measured using an IncuCyte ZOOM live cell analysis system (Essen Bioscience, Ann Arbor, Mich., USA) at intervals of 4 hours.
(§4) Tamoxifen-resistant breast cancer cells (TAMR-MCF-7) and/or control breast cancer cells (MCF-7) were treated with 2,4,6-trihydroxyacetophenone (THA), and then it was confirmed whether Plk1 activity and cell proliferation were inhibited, using the method of Example 1.

[12] = tested on: Polo-like kinase 1 (Plk1); assay: Western blotting and immunocytochemistry of Plk1 downstream signals (cdc25c, cyclin B1) in tamoxifen-resistant breast cancer cells; type: cell-based, human
Method: Sodium dodecyl sulfate-polyacrylamide gel electrophoresis (SDS-PAGE) was performed using a gel electrophoresis apparatus (Mighty Small SE250, Hoefer Scientific Instruments, San Francisco). A cell lysate fraction was diluted in a sample dilution buffer [63 mM Tris (pH 6.8), 10% glycerol, 2% SDS, 0.0013% bromophenol blue, and 5% β-mercaptoethanol], and then electrophoresis was performed thereon in an electrode buffer (15 g of Tris, 72 g of […], and 5 g of SDS included in a 1 L solution) using a 8% to 12% gel. The electrophoresed gel was used to transfer proteins to a nitrocellulose membrane at 190 mAmps for 70 minutes in a transfer buffer (25 mM Tris, 192 mM […], and 20% v/v methanol (pH 8.3)) using a transfer electrophoresis apparatus. The nitrocellulose membrane was reacted with a primary antibody, and then reacted with horseradish peroxidase-conjugated goat anti-rabbit IgG and horseradish peroxidase-conjugated goat anti-mouse IgG as secondary antibodies for 6 hours, followed by color development using an ECL detection system (ECL chemiluminescence system, Amersham, Gaithersberg, Mass.).
To measure fluorescence expression, cells were plated in a 6-well dish (5×10^5 cells/well). Fluorescence was conjugated to cdc25c and cyclin B1 antibodies using SiteClick™ Qdot antibody labeling kits (Thermo Scientific, IL, USA), and fluorescence-conjugated cdc25c and cyclin B1 antibodies were treated in a 6-well dish, and then expression was observed through a fluorescence microscope.
as §4

[13] = tested on: MCF-7 cells; assay: Real-time cell proliferation assay (IncuCyte ZOOM), MCF-7; type: cell-based, human; conditions: MCF-7 normal (control) breast cancer cells; FIG. 2
Method: as §2, §3, §4

[14] = tested on: human breast cancer cell line panel; assay: THA reactivity according to Plk1 expression differences per human breast cancer cell line; type: cell-based; conditions: 11 breast cancer cell lines classified as low, medium, high Plk1 expression; FIGS. 11A and 11B
[15] = tested on: TAMR-MCF-7 cells; assay: Tamoxifen-resistant breast cancer cell xenograft mouse model; type: in vivo, BALB/c-nu mice
Method: In all experiments, 6-week-old female BALB/c-nu mice were raised for 1 week at the Research Center for Animal Experiments in the College of Pharmacy of the Seoul National University at a humidity of 55±5% and a temperature of 22±2° C. and under controlled ventilation conditions and adapted to the environment, and then used in the experiments according to randomized block design, and light/dark cycles were adjusted to 12 hours.
Animal experiments were carried out in accordance with the Experimental Animals Ethics Guidelines. TAMR-MCF-7 cells (5×10^6 cells) were transdermally injected into the left mammary gland of nude mice, and tumor sizes were measured using a caliper twice a week. Tumor volume was calculated by the following formula: Tumor volume=length×width^2. Five weeks after cell transplantation, the mice were euthanized using carbon dioxide gas and the tumors were extracted and weighed.
THA was intraperitoneally administered to a tamoxifen-resistant breast cancer cell-transplanted mouse model every day for 2 weeks at a dose of 6 mg/kg based on a dose known to be effective for bile secretion in the liver. Tumor sizes and weights were measured twice a week during the administration period, and after administration was completed, tumors were extracted, and then the extracted tumor tissues were weighed. PCNA, which is a cell proliferative index, and TUNEL, which is an apoptotic index, were evaluated in the tumor tissues by immunohistochemistry staining, and some tissues were pulverized to quantify cdc25c, which is a downstream signal of Plk1, as a Plk1 activity index, and an increase or decrease in cdc25c expression was confirmed by western blotting.
In addition, THA was administered to a tamoxifen-resistant breast cancer cell-transplanted mouse model at a dose of 10 mg/kg, 30 mg/kg, or 100 mg/kg using an oral zonde needle every day for 2 weeks.

[16] = tested on: TAMR-MCF-7 cells; assay: Real-time apoptosis analysis with caspase-3/7 fluorescent substrate; type: cell-based, human; conditions: caspase-3/7 selective fluorescent substrate, FIG. 6
Method: To measure apoptosis, cells were plated in a 96-well dish (5×10^3 cells/well). The cells were pre-treated with the IncuCyte ZOOM™ 96-well Caspase-3/7 apoptosis assay reagent for 3 hours and treated with a drug, and then the degree of fluorescence expression was measured using an IncuCyte ZOOM™ live cell analysis system (Essen Bioscience, Ann Arbor, Mich., USA) at intervals of 4 hours.

[17] = tamoxifen-resistant breast cancer cells, western blotting and immunocytochemistry, FIG. 1
[18] = intraperitoneal 6 mg/kg, immunohistochemistry, FIGS. 7D and 7E

| SMILES | cell proliferation [1] | cell proliferation [2] | cell proliferation [3] | cell proliferation [4] | cell proliferation [5] | cell proliferation [6] | cell proliferation [7] | cell proliferation [8] | cell proliferation [9] | further results |
| --- | --- | --- | --- | --- | --- | --- | --- | --- | --- | --- |
| CC[C@@H]1C(=O)N(C)c2cnc(Nc3ccc(C(=O)NC4CCN(C)CC4)cc3OC)nc2N1C1CCCC1 [BI-2536, reference compound] | cell proliferation was inhibited | cell proliferation was inhibited | cell proliferation was inhibited | cell proliferation was inhibited | cell proliferation was inhibited | cell proliferation was inhibited | cell proliferation was inhibited | cell proliferation was inhibited | cell proliferation was inhibited |  |
| CC(=O)c1c(O)cc(O)cc1O [THA, 2,4,6-trihydroxyacetophenone] | cell proliferation was inhibited | cell proliferation was inhibited | cell proliferation was inhibited | cell proliferation was inhibited | cell proliferation was inhibited | cell proliferation was inhibited | cell proliferation was inhibited | cell proliferation was inhibited | cell proliferation was inhibited | cell cycle inhibition [10]: S phase arrest; inhibition of cell proliferation [11]: more strongly inhibited cell proliferation; Plk1 inhibitory effect ([12]; concluded from cdc25c decrease and cyclin B1 increase): had a Plk1 inhibitory effect; compensatory cyclin B1 expression [12, 17]: increased compensatory cyclin B1 expression; expression of cdc25c, downstream signal of Plk1 [12, 17]: reduced the expression of cdc25c; inhibition of cell proliferation [13]: inhibited cell proliferation; selectivity according to Plk1 expression (correlation between Plk1 expression and IC50 of each cell line) [14]: selectively acts on breast cancer cells with high Plk1 expression; tumor size ([15]; intraperitoneal 6 mg/kg every day for 2 weeks, compared to control, FIG. 7A): significantly reduced; tumor weight ([15]; intraperitoneal 6 mg/kg every day for 2 weeks, compared to control, FIG. 7C): significantly reduced; body weight of each mouse ([15]; intraperitoneal 6 mg/kg every day for 2 weeks, FIG. 7B): maintained at a similar level; PCNA, cell proliferative index, in tumor tissue [15, 18]: reduced; TUNEL, apoptotic index, in tumor tissue [15, 18]: significantly increased; cdc25c expression in tumor tissue (Plk1 activity index) ([15]; intraperitoneal 6 mg/kg, western blotting, FIG. 7F): significantly inhibited; tumor size ([15]; oral 10 mg/kg, 30 mg/kg, or 100 mg/kg every day for 2 weeks, compared to control, FIG. 7G): significantly reduced; body weight of each mouse ([15]; oral 10 mg/kg, 30 mg/kg, or 100 mg/kg every day for 2 weeks, FIG. 7I): maintained at a similar level; apoptotic index [16]: significantly increased |
